Like-named read-outs stand apart in the source and are kept apart here.
Columns and labels:
[1] = system: Colo 205 doxorubicin-sensitive colonic adenocarcinoma cells; test: MTT cytotoxicity (24 h) / antiproliferation (72 h) assay; type: cell-based, human; conditions: Homo sapiens, read-out: Colo205 IC50
Protocol: Human doxorubicin-sensitive Colo 205 (ATCC-CCL-222) and multidrug resistant Colo 320 (overexpressing ABCB1 (MDR1)-LRP (ATCC-CCL-220.1)) colonic adenocarcinoma cell lines were purchased from LGC Promochem, Teddington, UK. The cells were cultured in RPMI 1640 medium supplemented with 10% heat-inactivated fetal bovine serum, 2 mM L-glutamine, 1 mM Na-pyruvate and 100 mM Hepes. The cell lines were incubated at 37 °C, in a 5% CO2, 95% air atmosphere. The semi-adherent human colon cancer cells were detached with Trypsin-Versene (EDTA) solution for 5 min at 37 °C.
In the study non-cancerous human embryonic lung fibroblast MRC-5, human colonic adenocarcinoma cell line (doxorubicin-sensitive Colo 205, multidrug resistant Colo 320) and neuroblastoma cell line SH-SY5Y were used to determine the effect of compounds on cell growth. The effects of increasing concentrations of compounds on cell growth were tested in 96-well flat-bottomed microtiter plates. The compounds were diluted in a volume of 100 μL of medium.
In case of the colonic adenocarcinoma cells, the two-fold serial dilutions of compounds were prepared in 100 μL of RPMI 1640, horizontally. The semi-adherent colonic adenocarcinoma cells were treated with Trypsin–Versene (EDTA) solution. The cells were adjusted to a density of 2 × 10^4 cells in 100 μL of RPMI 1640 medium, and were added to each well, with the exception of the medium control wells. The final volume of the wells containing compounds and cells was 200 μL.
The culture plates were incubated at 37 °C for 24 h; at the end of the incubation period, 20 μL of MTT (thiazolyl blue tetrazolium bromide, Sigma) solution (from a stock solution of 5 mg/mL) were added to each well. After incubation at 37 °C for 4 h, 100 μL of sodium dodecyl sulfate (SDS) (Sigma) solution (10% in 0.01 M HCI) were added to each well and the plates were further incubated at 37 °C overnight. Cell growth was determined by measuring the optical density (OD) at 540/630 nm with Multiscan EX ELISA reader (Thermo Labsystems, Cheshire, WA, USA). […] Curves were fitted by GraphPad Prism software using the sigmoidal dose-response model (comparing variable and fixed slopes).
The method is similar to the one described in the assay for cytotoxic effect. […] The culture plates were incubated at 37 °C for 72 h and after the incubation time, the plates were stained with MTT according to the previous experimental protocol described for the cytotoxicity assay.

[2] = target: T1, OCT3 (Homo sapiens, UniProt O75751); test: [3H]-MPP+ uptake inhibition assay in HEK-293 cells; type: cell-based; conditions: HEK cells stably expressing human OCT3; 10 min uptake
T1 construct: expressed in transfected cells
T1 sequence (O75751 1-556): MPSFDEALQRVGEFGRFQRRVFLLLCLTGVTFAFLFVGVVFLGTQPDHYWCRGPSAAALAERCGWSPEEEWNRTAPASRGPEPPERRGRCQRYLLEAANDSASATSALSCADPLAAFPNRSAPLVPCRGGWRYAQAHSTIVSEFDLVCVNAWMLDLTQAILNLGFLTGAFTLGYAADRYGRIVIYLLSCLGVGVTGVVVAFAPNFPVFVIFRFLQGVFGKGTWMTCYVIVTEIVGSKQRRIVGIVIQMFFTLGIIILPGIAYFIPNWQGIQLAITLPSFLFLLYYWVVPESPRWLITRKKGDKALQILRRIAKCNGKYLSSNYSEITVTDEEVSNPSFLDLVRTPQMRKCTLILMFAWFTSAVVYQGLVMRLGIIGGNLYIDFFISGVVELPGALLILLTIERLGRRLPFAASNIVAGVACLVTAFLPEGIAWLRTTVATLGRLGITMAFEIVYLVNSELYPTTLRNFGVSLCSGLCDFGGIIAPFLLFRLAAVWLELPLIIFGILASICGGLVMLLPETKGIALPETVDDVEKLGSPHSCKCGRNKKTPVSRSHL
Protocol: HEK–293 cells (LGC Standards GmbH, Germany) stably expressing human isoforms of wild type organic cation transporters 1–3 (OCT1–3) were cultured in Dulbecco’s modified Eagle’s medium (DMEM; Sigma-Aldrich) with high glucose (4.5 g/L) and L-glutamine (584 mg/L) supplemented with 10% foetal calf serum (FCS; Biowest) and penicillin/streptomycin mixture (50 mg/L; Sigma/Aldrich) at 37 °C in a humidified atmosphere (5% CO2). The selection reagent was Geneticin (150 U/mL; Merck, Germany) for all three cell lines. Cells were seeded onto poly-D-lysine (0.05 mg/mL; Sigma-Aldrich) precoated clear bottom Corning 96 well white assay plate (Sigma-Aldrich) at the density of 4 × 10^4 cells per well 24 h prior to the experiment.
The assay was performed as previously described with slight modification. Briefly, on the day of the experiment, cells were washed once with 100 µL Krebs-HEPES buffer (KHB; 10 mM HEPES, 120 mM NaCl, 3 mM KCl, 2 mM CaCl2·2H2O, 2 mM MgCl2·6H2O, 5 mM D-(+)- glucose, pH 7.3) at room temperature. Cells were preincubated for 10 min in 50 µL of RT KHB containing increasing concentrations of tested compounds previously dissolved in dimethyl sulfoxide (DMSO; final concentration in working solution was 1%). After that, the preincubation solution was quickly removed and replaced with 50 µL of uptake solution containing the aforementioned components with the addition of 50 nM [^3H]-1-methyl-4-phenylpyridinium ([^3H]-MPP^+; 60 Ci/mmol; American Radiolabeled Chemicals, Saint Louis, MO, USA). After the 10 min uptake at RT, the transport was stopped by washing cells with 100 µL of ice-cold KHB and adding 200 µL of Ultima GoldTM XR scintillation cocktail (PerkinElmer, MA, USA). The plates were shaken, placed into Wallac 1450 MicroBeta TriLux Liquid Scintillation Counter and Lumi (GMI, Ramsey, MN, USA) and the released radioactivity was measured for 3 min. Nonspecific [^3H]-MPP^+ uptake was measured in the presence of 100 µM decynium-22 and the data were plotted as a percentage of uptake in the presence of 1% DMSO from which the value of the nonspecific uptake was subtracted. Nonlinear regression analysis (GraphPad Prism version 5.0, GraphPad Software, San Diego, CA, USA) was used for calculation of IC50 values.

Row | SMILES | IC50 ([1]; COLO 205, 24 h exposure) | IC50 ([1]; COLO 205, 72 h exposure) | IC50 [2]
1 | C[N+](C)(C)Cc1ccc(O)c(/C=N/NC(=S)Nc2ccccc2)c1 [[H2L^Ph]Cl] | > 100 µM | > 100 µM | 27.8 ± 5 µM
2 | CNC(=S)N/N=C/c1cc(C[N+](C)(C)C)ccc1O [[H2L^Me]Cl] | > 100 µM | > 100 µM | 103 ± 23.4 µM
3 | C[N+](C)(C)Cc1ccc(O)c(/C=N/NC(N)=S)c1 [[H2L^H]Cl] | > 100 µM | > 100 µM | 105 ± 32.8 µM
4 | CCNC(=S)N/N=C/c1cc(C[N+](C)(C)C)ccc1O [[H2L^Et]Cl] | > 100 µM | > 100 µM | 63.1 ± 8.9 µM

From article PMC7565988, “Insight into the Anticancer Activity of Copper(II) 5-Methylenetrimethylammonium-Thiosemicarbazonates and Their Interaction with Organic Cation Transporters” (Biomolecules, 2020)
